Source: patent US11208400B2, “Substituted 6-(1H-pyrazol-1-yl)pyrimidin-4-amine derivatives and uses thereof” (Bayer Aktiengesellschaft, priority 2016, dated 2021)

Biological target: T1, human Npt2a (Homo sapiens, UniProt Q06495)
T1 construct: expressed in transfected cells
T1 sequence (Q06495 1-639): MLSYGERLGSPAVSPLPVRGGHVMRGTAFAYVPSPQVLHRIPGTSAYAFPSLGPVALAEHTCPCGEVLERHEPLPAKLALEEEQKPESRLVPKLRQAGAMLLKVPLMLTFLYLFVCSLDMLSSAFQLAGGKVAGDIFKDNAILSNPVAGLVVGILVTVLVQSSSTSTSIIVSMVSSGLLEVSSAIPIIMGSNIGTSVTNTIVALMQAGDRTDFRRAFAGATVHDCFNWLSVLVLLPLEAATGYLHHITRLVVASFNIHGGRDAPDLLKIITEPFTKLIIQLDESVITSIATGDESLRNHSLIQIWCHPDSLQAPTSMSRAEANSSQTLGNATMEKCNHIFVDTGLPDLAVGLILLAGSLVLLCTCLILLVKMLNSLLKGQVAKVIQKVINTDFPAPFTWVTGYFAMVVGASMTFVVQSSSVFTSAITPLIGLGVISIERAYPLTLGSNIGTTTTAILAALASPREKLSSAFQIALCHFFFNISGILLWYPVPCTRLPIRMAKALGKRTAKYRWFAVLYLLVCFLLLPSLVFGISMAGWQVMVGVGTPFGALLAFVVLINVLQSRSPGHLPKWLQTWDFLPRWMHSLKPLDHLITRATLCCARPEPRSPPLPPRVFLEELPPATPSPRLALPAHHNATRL
Assay: Npt2a activity cell based assay, membrane potential dye, CHO T-REx hNpt2a cells
Conditions: doxycycline-induced, depolarization by sodium phosphate influx, average or median values if tested more than once
Method in brief: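 Doxycycline-induced (0.5 μg/mL, 24 h) CHO T-REx cells were loaded with membrane potential dye in sodium-free NHE buffer (pH 7.4) and exposed to compound (50 μM–1 nM, 5 min, room temperature).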

Structure (SMILES) | IC50
CCOC(=O)c1c(C)nn(-c2cc(Nc3c(C)c(-c4ccc(Cl)cc4)nn3C)ncn2)c1C [Example 367, ethyl 1-(6-{[3-(4-chlorophenyl)-1,4-dimethyl-1H-pyrazol-5-yl]amino}pyrimidin-4-yl)-3,5-dimethyl-1H-pyrazole-4-carboxylate] | 40 nM
Cc1nn(-c2cc(Nc3c(C)c(-c4ccc(F)cc4F)nn3CC3CC3)ncn2)c(C)c1C(C)(C)O [Example 368, 2-[1-(6-{[1-(cyclopropylmethyl)-3-(2,4-difluorophenyl)-4-methyl-1H-pyrazol-5-yl]amino}pyrimidin-4-yl)-3,5-dimethyl-1H-pyrazol-4-yl]propan-2-ol] | 7 nM
Cc1nnc(-c2c(C)nn(-c3cc(Nc4c(C)c(-c5ccc(F)cc5)nn4CC4CC4)ncn3)c2C)o1 [Example 372, N-[1-(cyclopropylmethyl)-3-(4-fluorophenyl)-4-methyl-1H-pyrazol-5-yl]-6-[3,5-dimethyl-4-(5-methyl-1,3,4-oxadiazol-2-yl)-1H-pyrazol-1-yl]pyrimidin-4-amine] | 7 nM
Cc1nn(-c2cc(Nc3c(C)c(-c4ccc(C#N)cc4)nn3CC3CC3)ncn2)c(C)c1C(F)(F)F [Example 373, 4-[1-(cyclopropylmethyl)-5-({6-[3,5-dimethyl-4-(trifluoromethyl)-1H-pyrazol-1-yl]pyrimidin-4-yl}amino)-4-methyl-1H-pyrazol-3-yl]benzonitrile] | 5 nM
Cc1nn(-c2cc(Nc3c(C)c(-c4ccc(OC(F)(F)F)cc4)nn3C)ncn2)c(C)c1C(C)(C)O [Example 377, 2-{1-[6-({1,4-dimethyl-3-[4-(trifluoromethoxy)phenyl]-1H-pyrazol-5-yl}amino)pyrimidin-4-yl]-3,5-dimethyl-1H-pyrazol-4-yl}propan-2-ol] | 205 nM
Cc1nn(-c2cc(Nc3c(C)c(-c4ccc(F)cc4F)nn3C)ncn2)c(C)c1C(C)(C)O [Example 378, 2-[1-(6-{[3-(2,4-difluorophenyl)-1,4-dimethyl-1H-pyrazol-5-yl]amino}pyrimidin-4-yl)-3,5-dimethyl-1H-pyrazol-4-yl]propan-2-ol] | 2550 nM
Cc1nn(-c2cc(Nc3c(C)c(-c4ccc(C(F)(F)F)cc4)nn3C)ncn2)c(C)c1C(C)(C)O [Example 379, 2-{1-[6-({1,4-dimethyl-3-[4-(trifluoromethyl)phenyl]-1H-pyrazol-5-yl}amino)pyrimidin-4-yl]-3,5-dimethyl-1H-pyrazol-4-yl}propan-2-ol] | 880 nM
Cc1nn(-c2cc(Nc3c(C)c(-c4ccncc4)nn3CC3CC3)ncn2)c(C)c1C(C)(C)O [Example 380, 2-[1-(6-{[1-(cyclopropylmethyl)-4-methyl-3-(pyridin-4-yl)-1H-pyrazol-5-yl]amino}pyrimidin-4-yl)-3,5-dimethyl-1H-pyrazol-4-yl]propan-2-ol] | 170 nM
Cc1nn(-c2cc(Nc3c(C)c(-c4ccc(F)cc4)nn3CC3CC3)ncn2)c(C)c1C(F)(F)F [Example 381, N-[1-(cyclopropylmethyl)-3-(4-fluorophenyl)-4-methyl-1H-pyrazol-5-yl]-6-[3,5-dimethyl-4-(trifluoromethyl)-1H-pyrazol-1-yl]pyrimidin-4-amine] | 8 nM
Cc1nn(-c2cc(Nc3c(C)c(-c4ccc(F)cc4)nn3C)ncn2)c(C)c1C(F)(F)F [Example 382, 6-[3,5-dimethyl-4-(trifluoromethyl)-1H-pyrazol-1-yl]-N-[3-(4-fluorophenyl)-1,4-dimethyl-1H-pyrazol-5-yl]pyrimidin-4-amine] | 35 nM
Cc1nn(-c2cc(Nc3nn(C)c(-c4ccc(F)cc4)c3C)ncn2)c(C)c1C(F)(F)F [Example 383, 6-[3,5-dimethyl-4-(trifluoromethyl)-1H-pyrazol-1-yl]-N-[5-(4-fluorophenyl)-1,4-dimethyl-1H-pyrazol-3-yl]pyrimidin-4-amine] | 5 nM
Cc1nn(-c2cc(Nc3c(C)c(-c4ccncc4)nn3CC3CC3)ncn2)c(C)c1C(F)(F)F [Example 384, N-[1-(cyclopropylmethyl)-4-methyl-3-(pyridin-4-yl)-1H-pyrazol-5-yl]-6-[3,5-dimethyl-4-(trifluoromethyl)-1H-pyrazol-1-yl]pyrimidin-4-amine] | 30 nM
